ChEMBL document CHEMBL1151722, “Sesquiterpenoids and phenylpropanoids from Chloranthus serratus” (2008)
≈ marks a conversion by molar mass, not a printed value.

Tested on: Helicobacter pylori
Assay: Antimicrobial activity against Helicobacter pylori-SS1
Format: functional

MIC | Structure (SMILES)
25 µg/mL (≈ 102 µM) | C=C1CC/C=C(\C)C(=O)c2occ(C)c2C(=O)C1 [CHLORANTENE E]
25 µg/mL (≈ 106 µM) | C=C1CCC[C@]2(C)CC[C@@](O)(C(C)C)C(=O)[C@@H]12 [CHLORANTENE G]
25 µg/mL (≈ 102 µM) | C=C[C@]1(C)C(=O)c2occ(C)c2C(=O)[C@H]1C(=C)C [CHLORANTENE F]
25 µg/mL (≈ 96 µM) | CC1=C2C(=O)c3c(C)coc3C[C@@]2(C)[C@H](O)CC1=O [CHLORANTENE D]
